Where “and” joins values, the source holds several entries; their conditions need not be identical. Identical values can stand only once.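 Interpolation was linear, between the two tested concentrations surrounding the appropriate level; five concentrations were tested over 48 hours in 96-well plates. GI50: concentration for 50% inhibition of growth. TGI is the concentration that stops growth completely.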
Columns and labels:
Experiment in all cases: NCI anticancer screen, dose series, 48 h
[1] = test system: A498 renal
[2] = test system: MDA-MB-435
[3] = test system: M14 melanoma
[4] = test system: A549 NSCLC
[5] = test system: MOLT-4 leukemia
[6] = test system: NCI-H226 lung
[7] = test system: PC-3 prostate
[8] = test system: UACC-257 melanoma
[9] = test system: EKVX NSCLC
[10] = test system: T-47D breast

SMILES: CCCCCCCCCCC[C@@H](C[C@H]1OC(=O)[C@H]1CCCCCC)OC(=O)[C@@H](CC(C)C)NC=O
- GI50 [1]: 4.64 µM
- TGI [1]: 29.9 µM
- GI50 [2]: 5.77 µM
- TGI [2]: 60.3 µM
- GI50 [3]: 6.1 µM
- TGI [3]: 87 µM
- GI50 [4]: 13.1 µM
- TGI [4]: > 100 µM
- GI50 [5]: 0.704 µM
- TGI [5]: > 100 µM
- GI50 [6]: 2.1 µM
- TGI [6]: 7.91 µM
- GI50 [7]: 2.78 µM
- TGI [7]: 22.8 µM
- GI50 [8]: 38.4 µM
- TGI [8]: > 100 µM
- GI50 [9]: 27.4 µM
- TGI [9]: > 100 µM
- GI50 [10]: 13.3 µM
- TGI [10]: > 100 µM

SMILES: O=C1CCSC(=S)N1c1ccc(Br)c(Cl)c1
- TGI [1]: 48.4 µM
- TGI [2]: 65.7 µM
- TGI [3]: > 100 µM
- TGI [4]: > 100 µM
- TGI [5]: > 100 µM
- TGI [6]: 63.9 µM
- TGI [7]: > 100 µM
- TGI [8]: 37.8 µM
- TGI [9]: > 100 µM
- TGI [10]: 39.5 µM

SMILES: CC(C)=CC(=O)N[C@@H]1CC2CCC3C(CC[C@@]4(C)C3CC[C@@H]4C(C)N(C)C)[C@@]2(C)C[C@@H]1O (some centres not stated)
- GI50 [1]: 5.19 µM
- TGI [1]: 28.8 µM
- GI50 [2]: 2.9 µM
- TGI [2]: 10.1 µM
- GI50 [3]: 1.86 µM
- TGI [3]: 3.69 µM
- GI50 [4]: 7.27 µM
- TGI [4]: 33.8 µM
- GI50 [5]: 2.5 µM
- TGI [5]: 14 µM
- GI50 [6]: 8.04 µM
- TGI [6]: > 41.4 µM
- GI50 [7]: 3.73 µM
- TGI [7]: 32.7 µM
- GI50 [8]: 3.53 µM
- TGI [8]: 11.2 µM
- GI50 [9]: 3.12 µM
- TGI [9]: > 100 µM
- GI50 [10]: 1.94 µM
- TGI [10]: 31.2 µM

SMILES: CCCCCCCCCCCC1=NC(C)(C)CN1CC(C)O (configuration not stated)
- GI50 [1]: 10 µM
- TGI [1]: 22.8 µM
- GI50 [2]: 2.05 µM
- TGI [2]: 4.91 µM
- GI50 [3]: 1.62 µM
- TGI [3]: 3.1 µM
- GI50 [4]: 6.83 µM
- TGI [4]: 22.6 µM
- GI50 [5]: 2.83 µM
- TGI [5]: 8.51 µM
- GI50 [6]: 13.1 µM
- TGI [6]: 28.6 µM
- GI50 [7]: 4.48 µM
- TGI [7]: 18.6 µM
- GI50 [8]: 2.81 µM
- TGI [8]: 7.49 µM
- GI50 [9]: 11.2 µM
- TGI [9]: 25.2 µM
- GI50 [10]: 3.27 µM
- TGI [10]: 11.2 µM

SMILES: O=C(NO)c1ccc(Cn2c(=O)n(-c3ccccc3)c(=O)c3ccccc32)cc1
- GI50 [1]: 0.418 µM
- TGI [1]: 2.09 µM
- GI50 [2]: 0.531 µM
- TGI [2]: 1.77 µM
- GI50 [3]: 0.539 µM
- TGI [3]: 2.09 µM
- GI50 [4]: 2.33 µM
- TGI [4]: 13.6 µM
- GI50 [5]: 0.848 µM
- TGI [5]: > 100 µM
- GI50 [6]: 1.32 µM
- TGI [6]: 2.91 µM
- GI50 [7]: 1.72 µM
- TGI [7]: 4.53 µM
- GI50 [8]: 0.811 µM
- TGI [8]: 2.78 µM
- GI50 [9]: 1.11 µM
- TGI [9]: 2.69 µM
- GI50 [10]: 0.436 µM
- TGI [10]: 2.95 µM

SMILES: Oc1ccc(Oc2cnc3cc(Cl)ccc3n2)cc1
- GI50 [1]: 25.4 µM
- TGI [1]: > 100 µM
- GI50 [2]: 23.8 µM
- TGI [2]: 97.3 µM
- GI50 [3]: 46.5 µM
- TGI [3]: > 100 µM
- GI50 [4]: 61.8 µM
- TGI [4]: > 100 µM
- GI50 [5]: 14.6 µM
- TGI [5]: > 100 µM
- GI50 [6]: 55.4 µM
- TGI [6]: > 100 µM
- GI50 [7]: 23.6 µM
- TGI [7]: > 100 µM
- GI50 [8]: 65.7 µM
- TGI [8]: > 100 µM
- GI50 [9]: 13.2 µM
- TGI [9]: 74.4 µM
- GI50 [10]: 32.8 µM
- TGI [10]: > 100 µM

SMILES: COc1ccc2c(c1)C(=O)c1c-2c(N2CCN(C(=O)CNCCN(C)C)CC2)nc2ccccc12
- GI50 [1]: 2.14 µM
- TGI [1]: 5 µM
- GI50 [2]: 2.38 µM
- TGI [2]: 4.98 µM
- GI50 [3]: 1.88 µM
- TGI [3]: 3.52 µM
- GI50 [4]: 2.22 µM
- TGI [4]: 10.1 µM
- GI50 [5]: 1.47 µM
- TGI [5]: 5.98 µM
- GI50 [6]: 4.11 µM
- TGI [6]: 18 µM
- GI50 [7]: 3.48 µM
- TGI [7]: 15.1 µM
- GI50 [8]: 1.95 µM
- TGI [8]: 3.7 µM
- GI50 [9]: 3.87 µM
- TGI [9]: 15.7 µM
- GI50 [10]: 1.38 µM
- TGI [10]: 3.07 µM

SMILES: Cc1ccc(-c2cc(-c3ccc(C)cc3)nc(N3CCN(CCNc4ccnc5cc(Cl)ccc45)CC3)n2)cc1
- GI50 [1]: 9.69 µM
- TGI [1]: 30.4 µM
- GI50 [2]: 1.76 µM
- TGI [2]: 6.85 µM
- GI50 [3]: 1.9 µM
- TGI [3]: 8.45 µM
- GI50 [4]: 3.62 µM
- TGI [4]: 13.3 µM
- GI50 [5]: 6.25 µM
- TGI [5]: > 50 µM
- GI50 [6]: 5.13 µM
- TGI [6]: 18.1 µM
- GI50 [7]: 3.14 µM
- TGI [7]: 30.9 µM
- GI50 [8]: 1.91 µM
- TGI [8]: 6.88 µM
- GI50 [9]: 5.65 µM
- TGI [9]: 20 µM
- GI50 [10]: 3.21 µM
- TGI [10]: 17.9 µM

SMILES: O=C1/C(=C/c2ccc(Cl)cc2)CN(C(=O)CCN2CCC(=NO)CC2)C/C1=C\c1ccc(Cl)cc1
- GI50 [1]: 1.15 µM
- TGI [1]: 2.41 µM
- GI50 [2]: 0.631 µM
- TGI [2]: 1.76 µM
- GI50 [3]: 0.754 µM
- TGI [3]: 2.3 µM
- GI50 [4]: 1.65 µM
- TGI [4]: 3.77 µM
- GI50 [5]: 0.397 µM
- GI50 [6]: 1.35 µM
- TGI [6]: 2.75 µM
- GI50 [7]: 0.481 µM
- TGI [7]: 1.57 µM
- GI50 [8]: 1.67 µM
- TGI [8]: 3.43 µM
- GI50 [9]: 1.62 µM
- TGI [9]: 3.45 µM
- GI50 [10]: 1.08 µM
- TGI [10]: 4.26 µM

SMILES: O=C(Cc1csc2nc(-c3ccc(Br)cc3)cn12)N/N=C/c1ccc(Cl)cc1Cl
- GI50 [1]: 29.3 µM
- TGI [1]: 62.7 µM
- GI50 [2]: 31.4 µM
- TGI [2]: > 100 µM
- GI50 [3]: 32.9 µM
- TGI [3]: > 100 µM
- GI50 [4]: 16.8 µM
- TGI [4]: 37.5 µM
- TGI [5]: 26.3 µM
- GI50 [6]: 31.8 µM
- TGI [6]: 92.2 µM
- GI50 [7]: 30.2 µM
- TGI [7]: > 100 µM
- GI50 [8]: 68.9 µM
- TGI [8]: > 100 µM
- GI50 [9]: 31.6 µM
- TGI [9]: > 100 µM
- GI50 [10]: > 100 µM
- TGI [10]: > 100 µM

SMILES: O=C1C(Br)=C(Br)C(=O)c2ccccc21
- GI50 [1]: 48.5 µM and 13.4 µM
- TGI [1]: > 100 µM and 27.1 µM
- TGI [2]: 21.8 µM
- TGI [3]: 28.4 µM and 22.6 µM
- TGI [4]: 55.8 µM
- GI50 [5]: 7.01 µM and 1.34 µM
- GI50 [6]: 15.5 µM and 4.52 µM
- TGI [6]: 31.9 µM and 12.2 µM
- TGI [7]: 31.7 µM
- GI50 [8]: 18.2 µM and 8.21 µM
- TGI [8]: 32.6 µM and 16.7 µM
- GI50 [9]: 100 µM and 20 µM
- TGI [9]: > 100 µM and 39.9 µM
- TGI [10]: 12.5 µM

SMILES: O=C(Nc1ccc(Oc2ccc(NC(=O)Nc3ccc([N+](=O)[O-])cc3)cc2)cc1)Nc1ccc([N+](=O)[O-])cc1
- GI50 [1]: 1.97 µM
- TGI [1]: 7.23 µM
- GI50 [2]: 2.16 µM
- TGI [2]: 8.65 µM
- GI50 [3]: 2.37 µM
- TGI [3]: 11.7 µM
- GI50 [4]: 2.61 µM
- TGI [4]: > 78.8 µM
- GI50 [5]: 1.19 µM
- TGI [5]: 4.8 µM
- GI50 [6]: 2.9 µM
- TGI [6]: 27.8 µM
- GI50 [7]: 1.04 µM
- TGI [7]: > 22.8 µM
- GI50 [8]: 2.82 µM
- TGI [8]: > 26 µM
- GI50 [9]: 2.32 µM
- TGI [9]: > 30.9 µM
- GI50 [10]: 0.944 µM
- TGI [10]: 6.74 µM

SMILES: O=C(Cn1c(C(=O)c2ccc(Cl)cc2)nc(-c2ccccc2)c1-c1ccccc1)c1ccc(Cl)cc1
- GI50 [1]: > 100 µM
- TGI [1]: > 100 µM
- GI50 [2]: > 100 µM
- TGI [2]: > 100 µM
- GI50 [3]: > 100 µM
- TGI [3]: > 100 µM
- GI50 [4]: > 100 µM
- TGI [4]: > 100 µM
- GI50 [5]: > 100 µM
- TGI [5]: > 100 µM
- GI50 [6]: > 100 µM
- TGI [6]: > 100 µM
- GI50 [7]: > 100 µM
- TGI [7]: > 100 µM
- GI50 [8]: > 100 µM
- TGI [8]: > 100 µM
- GI50 [9]: > 100 µM
- TGI [9]: > 100 µM
- GI50 [10]: > 100 µM
- TGI [10]: > 100 µM

SMILES: CCOC(=O)Cn1c(-c2nonc2NC(=O)c2ccccc2F)nc2ccccc21
- GI50 [1]: 68 µM
- TGI [1]: > 100 µM
- GI50 [2]: 2.25 µM
- TGI [2]: > 100 µM
- GI50 [3]: 74.1 µM
- TGI [3]: > 100 µM
- GI50 [4]: 0.768 µM
- TGI [4]: > 56.7 µM
- GI50 [5]: 0.451 µM
- TGI [5]: > 100 µM
- GI50 [6]: 19.5 µM
- TGI [6]: > 100 µM
- GI50 [7]: 3.16 µM
- TGI [7]: > 82.1 µM
- GI50 [8]: 8.78 µM
- TGI [8]: > 100 µM
- GI50 [9]: 28 µM
- TGI [9]: > 100 µM
- GI50 [10]: 44.1 µM
- TGI [10]: > 100 µM

SMILES: O=C1/C(=C/c2ccc(Cl)cc2)CCC1CN1CCOCC1 (configuration not stated)
- TGI [1]: 36 µM
- TGI [2]: 14.3 µM
- TGI [3]: 19.4 µM
- TGI [4]: 55.9 µM
- TGI [5]: 4.21 µM
- TGI [6]: 42.3 µM
- TGI [7]: 18.5 µM
- TGI [8]: 21.8 µM
- TGI [9]: 30.7 µM
- TGI [10]: 6.25 µM

SMILES: COC1C(CO)OC(n2c3c(Cl)cccc3c3c4c(c5c6cccc(Cl)c6[nH]c5c32)C(=O)NC4=O)C(O)C1O (configuration not stated)
- TGI [1]: 0.688 µM
- TGI [2]: > 100 µM
- TGI [3]: 10.7 µM
- TGI [4]: 8.2 µM
- TGI [5]: > 100 µM
- TGI [6]: 0.666 µM
- TGI [7]: > 100 µM
- TGI [8]: 1.75 µM
- TGI [9]: > 100 µM
- TGI [10]: > 21.1 µM

Source: PubChem BioAssay (NCI)
